The values that follow come from PubChem BioAssay (NCI).

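These data come from cells grown in 96-well plates and exposed to compound for 48 hours at five concentrations. At the GI50, growth is halved. TGI denotes the concentration required for complete inhibition of growth.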 Some results are limits rather than exact numbers.

Among the test systems are U251 CNS; M14 melanoma; HCT-116 colon; NCI-H460 lung; PC-3 prostate; SF-295 CNS; OVCAR-3 ovarian; CCRF-CEM leukemia; UACC-257 melanoma; SK-MEL-5 melanoma.
Common to all, as to assay: growth of human tumour cells (NCI), 48 h

Consider `COc1ccccc1-c1ccc2nc(NC(=O)Nc3cc(C(F)(F)F)cc(C(F)(F)F)c3)sc2c1`, for which the GI50 is 2.31 µM with U251 CNS; 1.54 µM in the experiment on M14 melanoma; 1.07 µM in the experiment on HCT-116 colon; 2.26 µM in the experiment with NCI-H460 lung; 1.49 µM in the experiment on PC-3 prostate; 2.64 µM in the experiment on SF-295 CNS. Further, the GI50 in the experiment on OVCAR-3 ovarian is 1.58 µM; with CCRF-CEM leukemia, 2.43 µM; with UACC-257 melanoma it was 2.31 µM; with SK-MEL-5 melanoma, 1.57 µM. In addition, the TGI came to 10.3 µM with U251 CNS; 3.22 µM in the experiment on M14 melanoma; 2.45 µM with HCT-116 colon; 6.12 µM in the experiment on NCI-H460 lung; 6.93 µM in the experiment with PC-3 prostate; 9.33 µM in the experiment on SF-295 CNS. The TGI worked out at 4.58 µM in the experiment with OVCAR-3 ovarian, 15 µM with CCRF-CEM leukemia, 6.52 µM in the experiment with UACC-257 melanoma and 2.98 µM in the experiment on SK-MEL-5 melanoma.
Regarding `O=C1OCC2=C1C(c1cccc(C(F)(F)F)c1)c1cc3c(cc1N2CCO)OCO3` (stereo not drawn), the GI50 with U251 CNS is 1.82 µM; in the experiment with HCT-116 colon, 0.408 µM; in the experiment on NCI-H460 lung, 1.54 µM; with PC-3 prostate, 0.926 µM; in the experiment on SF-295 CNS it was 0.801 µM; in the experiment on OVCAR-3 ovarian it was 1.32 µM. Moreover, the GI50 was 0.955 µM in the experiment with CCRF-CEM leukemia, greater than 50 µM in the experiment on UACC-257 melanoma and 0.937 µM in the experiment on SK-MEL-5 melanoma. The TGI in the experiment on U251 CNS, with HCT-116 colon, with NCI-H460 lung, in the experiment with PC-3 prostate, in the experiment with SF-295 CNS and with OVCAR-3 ovarian was greater than 50 µM throughout. Besides, the TGI in the experiment with CCRF-CEM leukemia is greater than 50 µM; in the experiment on UACC-257 melanoma, greater than 50 µM; with SK-MEL-5 melanoma, 15.9 µM.
In the case of `Nc1c(S(=O)(=O)O)cc(Nc2cccc(S(N)(=O)=O)c2)c2c1C(=O)c1ccccc1C2=O`, the TGI with U251 CNS, in the experiment on M14 melanoma, with HCT-116 colon, with NCI-H460 lung, in the experiment on PC-3 prostate and in the experiment on SF-295 CNS was greater than 100 µM in each case. Further, the TGI with OVCAR-3 ovarian, with CCRF-CEM leukemia, in the experiment with UACC-257 melanoma and with SK-MEL-5 melanoma was greater than 100 µM throughout.
For the compound `COc1cc(-c2cc(-c3nc4cc(Cl)c(Cl)cc4[nH]3)[nH]n2)cc(OC)c1OC`, the GI50 in the experiment on U251 CNS was 2.96 µM; in the experiment with M14 melanoma it was 3.57 µM; with HCT-116 colon, 2.78 µM; with NCI-H460 lung it was 3.33 µM; in the experiment on PC-3 prostate, 2.2 µM; in the experiment on SF-295 CNS it was 3.04 µM. Besides, the GI50 with OVCAR-3 ovarian was 4.05 µM; with CCRF-CEM leukemia it was 2.35 µM; in the experiment with UACC-257 melanoma, 3.77 µM; in the experiment on SK-MEL-5 melanoma it was 1.56 µM. The TGI with U251 CNS amounted to 11 µM; in the experiment on M14 melanoma it was 13.3 µM; with HCT-116 colon, 10.3 µM; in the experiment on NCI-H460 lung, 12.9 µM; in the experiment with PC-3 prostate, 7.89 µM; in the experiment with SF-295 CNS it was 11.5 µM. For the same compound, the TGI in the experiment on OVCAR-3 ovarian stood at 15.4 µM; in the experiment with CCRF-CEM leukemia it was 6.75 µM; with UACC-257 melanoma it was 14.3 µM; in the experiment with SK-MEL-5 melanoma, 3.24 µM.
`CNS(=O)(=O)c1ccccc1C(=N)c1ccccc1`: the TGI in the experiment with U251 CNS, with M14 melanoma, with HCT-116 colon, in the experiment with NCI-H460 lung, in the experiment with PC-3 prostate and with SF-295 CNS was greater than 100 µM throughout. In addition, the TGI with OVCAR-3 ovarian, with CCRF-CEM leukemia and in the experiment on SK-MEL-5 melanoma was greater than 100 µM each time.
As for `O=C1c2ccccc2C(=O)c2c(NC(=O)C(Cl)CCl)cccc21` (stereo not drawn), the TGI in the experiment on U251 CNS is greater than 38.4 µM; with M14 melanoma, 20.9 µM; with HCT-116 colon, 28.4 µM; in the experiment with NCI-H460 lung it was 31.1 µM; in the experiment with PC-3 prostate it was 24.3 µM; in the experiment with SF-295 CNS, greater than 62.1 µM. For the same compound, the TGI with OVCAR-3 ovarian amounted to 23.1 µM; with CCRF-CEM leukemia, 2.38 µM; in the experiment with UACC-257 melanoma it was 36.5 µM; in the experiment with SK-MEL-5 melanoma, 28.1 µM.
Turning to `CC(C)[C@](O)(C(=O)OCC1=CC[N+]2([O-])CC[C@@H](O)[C@@H]12)[C@H](C)O` (stereo partly drawn), the TGI in the experiment with U251 CNS is greater than 10000 µM; in the experiment on M14 melanoma, greater than 10000 µM; in the experiment on HCT-116 colon it was greater than 10000 µM; with NCI-H460 lung, greater than 9540 µM; in the experiment with PC-3 prostate it was greater than 10000 µM; in the experiment on SF-295 CNS, greater than 10000 µM. Moreover, the TGI in the experiment with OVCAR-3 ovarian, in the experiment on CCRF-CEM leukemia, in the experiment with UACC-257 melanoma and with SK-MEL-5 melanoma was greater than 10000 µM each time.
As to `[C-]#[O+].[C-]#[O+].[Ir].[O-]c1ccc2ccccc2c1N=Nc1ccccc1`, the TGI was 34.9 µM in the experiment on U251 CNS; 13.2 µM with M14 melanoma; 24.7 µM in the experiment with HCT-116 colon; greater than 70.6 µM in the experiment with NCI-H460 lung; 54 µM in the experiment on PC-3 prostate; greater than 72.1 µM in the experiment with SF-295 CNS. Also, the TGI in the experiment with OVCAR-3 ovarian is 17 µM; in the experiment with CCRF-CEM leukemia, 7.42 µM; in the experiment on UACC-257 melanoma, 14.4 µM; in the experiment with SK-MEL-5 melanoma, 28.7 µM. For the same compound, the GI50 with SF-295 CNS was 45.9 µM.
Take `CN1C(=O)N(C)C2C1NN=c1s/c(=C\c3c[nH]c4ccccc34)c(=O)n12` (stereo not drawn): the GI50 with U251 CNS was 0.0413 µM; with M14 melanoma, 0.0294 µM; in the experiment with HCT-116 colon, 0.0371 µM; in the experiment on NCI-H460 lung, 0.0397 µM; in the experiment on PC-3 prostate, 0.0413 µM; in the experiment on SF-295 CNS it was 0.0304 µM. Further, the GI50 in the experiment on OVCAR-3 ovarian is 0.0325 µM; with CCRF-CEM leukemia it was 0.0337 µM; in the experiment with UACC-257 melanoma, greater than 100 µM; in the experiment on SK-MEL-5 melanoma it was 0.0347 µM. Besides, the TGI in the experiment with U251 CNS is greater than 100 µM; with M14 melanoma, greater than 100 µM; in the experiment with HCT-116 colon, greater than 100 µM; in the experiment on NCI-H460 lung it was greater than 100 µM; with PC-3 prostate it was greater than 100 µM; with SF-295 CNS, 33.6 µM. Further, the TGI is greater than 100 µM with OVCAR-3 ovarian, greater than 100 µM in the experiment on CCRF-CEM leukemia, greater than 100 µM in the experiment with UACC-257 melanoma and 0.184 µM in the experiment with SK-MEL-5 melanoma.
